Measured values from patent US8952054B2, “Small molecule inhibitors of MUC1 and methods of identifying the same” (Dana-Farber Cancer Institute, Inc., priority 2010, dated 2015).

Legend:
BT474 cells = experiment: BT474 viability (MTS) and colony formation; format: cell-based, human
Method: (§1) FIGS. 16A-D—Effects of apigenin on breast cancer cells without and with endogenous MUC1 expression. (FIG. 16A) Lysates from human MCF-7, HCC1937 and BT474 cells were immunoblotted with the indicated antibodies. (FIG. 16B) BT474 cells were treated with indicated concentrations of apigenin and baicalein for 3 d, washed and then treated for an additional 3 d. Lysates were immunoblotted with the indicated antibodies. (FIG. 16C) BT474 (triangles) and HCC1937 (squares) cells were treated with apigenin for 3 d. Viable cell numbers were determined by MTS assay. The results (mean+SD of 3 determinations) are expressed as percentage of control growth in the presence of DMSO. (FIG. 16D) BT474 cells were plated at a density of 5000 cells/6 cm dish. At 24 h after seeding, DMSO or apigenin at concentrations of 25, 50 and 75 μM was added to the medium. After 2 weeks, colonies were stained with crystal violet. The results (mean+SD of 3 determinations) are expressed as percentage of control colony formation in the presence of DMSO.

MUC1 promoter = experiment: MUC1-C occupancy on the MUC1 promoter; format: cell-based
MUC1-C = biological target: T1, MUC1-C (Homo sapiens, UniProt P15941); experiment: Immunoblot of MUC1-C expression in BT474 cells; format: cell-based; set-up: endogenous in cells; conditions: BT474, 3 d then additional 3 d
T1 sequence (P15941 1098-1255 limits assumed): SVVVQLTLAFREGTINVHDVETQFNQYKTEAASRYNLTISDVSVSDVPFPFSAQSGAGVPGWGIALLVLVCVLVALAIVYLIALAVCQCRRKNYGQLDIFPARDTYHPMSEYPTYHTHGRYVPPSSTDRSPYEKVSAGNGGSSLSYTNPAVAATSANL
Method: as §1

[1] = test system: ZR-75-1 breast tumor xenografts; experiment: ZR-75-1 breast tumor xenografts in nude mice; format: in vivo, Balb-c nu/nu mice
Method: FIGS. 5A-C. MUC1/CQC peptide blocks growth of ZR-75-1 breast tumor xenografts. (FIG. 5A) Four to six week-old female Balb-c nu/nu mice were implanted with 17-β-estradiol plugs. After 24 h, ZR-75-1 breast cancer cells (imbedded in matrigel) were injected subcutaneously in the flank. When tumors were ˜150 mm3, the mice were paired matched into groups and injected intraperitoneally with PBS (vehicle control; closed squares), 50 mg/kg MUC1/AQA peptide (control peptide; open squares) or 10 mg/kg MUC1/CQC peptide (closed triangles) daily for 21 d. Another group was treated with 50 mg/kg MUC1/CQC peptide daily for 6 d (open triangles). Mice were weighed twice weekly and tumor measurements were performed every 4 d. (FIGS. 5B and 5C). On day 24 (asterisk), tumors harvested from the control group and the group treated with 50 mg/kg/d×6 d were stained with H&E (FIG. 5B) and with an antibody against MUC1 (FIG. 5C).
(§2) To determine if administration of the MUC1/CQC peptide is associated with effects on body weight, five female nude (nu/nu) mice were injected intraperitoneally (IP) once each day at a dose of 50 mg/kg. […] To assess anti-tumor activity, ZR-75-1 cells (1×10^7) were implanted subcutaneously into the flanks of nude mice. After 12 d, mice bearing tumors of approximately 150 mm^3 were treated with the MUC1/CQC peptide at doses of 10 and 50 mg/kg/d. As controls, mice were treated with vehicle alone or with the MUC1/AQA peptide. Administration of the MUC1/CQC peptide at 10 mg/kg/d×21 d slowed growth as compared to that obtained with the MUC1/AQA peptide given at 50 mg/kg/d (FIG. 5A). […] Consequently, treatment was stopped and the mice were monitored for regrowth. […] To assess in part the basis for the activity, tumors harvested from control and treated mice were examined by histopathology. […] Sections of the tumors were also stained with an antibody against MUC1.

[2] = Body weight of nude mice given peptide; format: in vivo, nude (nu/nu) mice
Method: as §2

MCF-7 cells = experiment: Cell cycle distribution and necrosis by flow cytometry, MCF-7; format: cell-based, human; conditions: MCF-7, 5 μM, 3 and 4 d
Method: (§3) FIGS. 3A-D. MUC1/CQC peptide induces S phase arrest and necrosis. ZR-75-1 (FIGS. 2A-B) and MCF-7 (FIGS. 2C-D) cells were treated with 5 μM MUC1/CQC or MUC1/AQA for 3 and 4 d. Cells were fixed and analyzed for cell cycle distribution by flow cytometry (FIGS. 2A and 2C). The percentage of cells in G1, S and G2/M phases is included in the panels. Cells were also stained with propidium iodide and analyzed by flow cytometry for necrosis (FIGS. 2B and 2D). The percentage of necrotic cells is included in the panels.
(§4) Cells were harvested, washed with PBS, fixed with 80% ethanol, and incubated in PBS containing 40 μg/ml RNAse and 40 μg/ml propidium iodide for 30 min at 37° C. Cell cycle distribution was determined by flow cytometry. Sub-G1 DNA content was assessed by staining ethanol-fixed and citrate buffer-permeabilized cells with propidium iodide and monitoring by flow cytometry as described (Yin et al., 2007). For assessment of necrosis, cells were incubated with 1 μg/ml propidium iodide/PBS for 5 min at room temperature and then monitored by flow cytometry as described (Yin et al., 2007).

ZR-75-1 cells = experiment: Cell cycle distribution, apoptosis and necrosis by flow cytometry, ZR-75-1; format: cell-based, human; conditions: ZR-75-1, 5 μM; for necrosis (propidium iodide): detectable at 72 h, more prominent at 96 h
Method: as §3, §4

O=c1cc(-c2ccc(O)cc2)oc2cc(O)cc(O)c12 [Apigenin, 4′,5,7-trihydroxyflavone]
clonogenic survival (BT474 cells; BT474, 25, 50 and 75 μM, 2 weeks): concentration dependent decreases in clonogenic survival | viability (MTS) (BT474 cells; BT474, 3 d): loss of viability | MUC1-C occupancy on the MUC1 promoter (MUC1 promoter): blocked MUC1-C occupancy on the MUC1 promoter | MUC1-C expression (MUC1-C): downregulation of MUC1-C expression

O=c1cc(-c2ccccc2)oc2cc(O)c(O)c(O)c12 [Baicalein, 5,6,7-trihydroxyflavone, reference compound]
MUC1-C occupancy on the MUC1 promoter (MUC1 promoter): not

CC[C@H](C)[C@H](NC(=O)[C@H](CC(=O)O)NC(=O)[C@H](CC(C)C)NC(=O)[C@H](CCC(N)=O)NC(=O)CNC(=O)[C@H](Cc1ccc(O)cc1)NC(=O)[C@H](CC(N)=O)NC(=O)[C@H](CCCCN)NC(=O)[C@H](CCCNC(=N)N)NC(=O)[C@H](CCCNC(=N)N)NC(=O)[C@H](CS)NC(=O)[C@H](CCC(N)=O)NC(=O)[C@H](CS)NC(=O)[C@@H](CCCNC(=N)N)NC(=O)[C@@H](CCCNC(=N)N)NC(=O)[C@@H](CCCNC(=N)N)NC(=O)[C@@H](CCCNC(=N)N)NC(=O)[C@@H](CCCNC(=N)N)NC(=O)[C@@H](CCCNC(=N)N)NC(=O)[C@@H](CCCNC(=N)N)NC(=O)[C@@H](CCCNC(=N)N)NC(=O)[C@H](N)CCCNC(=N)N)C(=O)N[C@@H](Cc1ccccc1)C(=O)N1CCC[C@H]1C(=O)O [MUC1/CQC]
tumor growth ([1]; 10 mg/kg/d × 21 d IP, versus MUC1/AQA 50 mg/kg/d): slowed growth | tumor growth ([1]; 50 mg/kg/d IP, initial 7 d of treatment): blocked growth | tumor regrowth after treatment stopped ([1]; 50 mg/kg/d group, next 17 d): no detectable growth | tumor histopathology (H&E) ([1]; 10 and 50 mg/kg, versus vehicle or MUC1/AQA): markedly necrotic | body weight ([2]; 50 mg/kg IP once each day over 11 d): no apparent effect | body weight ([2]; next 28 d after stopping administration, data not shown): no subsequent effect | cell cycle distribution (MCF-7 cells): arrest of growth in S phase | necrosis (propidium iodide) (MCF-7 cells): induction of necrosis | sub-G1 DNA content (apoptosis) (ZR-75-1 cells): little if any accumulation of cells with sub-G1 DNA content | cell cycle distribution (ZR-75-1 cells; 72 h): substantial arrest in S phase | cell cycle distribution (ZR-75-1 cells; 96 h): S phase population was decreased | necrosis (propidium iodide) (ZR-75-1 cells): induction of necrosis

MUC1/AQA: control peptide in which the CQC motif was altered to AQA (SEQ ID NO: 11) (AQARRKNYGQLDIFP) [reference compound]
MUC1 expression in tumor sections (antibody staining) ([1]; versus control tumors): marked down-regulation of MUC1 expression | necrosis (propidium iodide) (ZR-75-1 cells): not
